This experiment deals with mixed cortical neuronal cultures. Nature of the experiment: Neuroprotection against NMDA (500 μM) toxicity in mixed cortical neuronal cultures, Trypan Blue Dye Exclusion Test. It counts as cell-based. Conditions: Rattus norvegicus, Cortical neurone; cultured cortical neurons from foetal rats; 3 min preincubation, 20 min exposure to NMDA 500 μM, viability after 24 hours; mean of at least 3 different experiments; read-out: EC50 (neuroprotective effect). On the procedure:
The efficacy of the compounds of the invention as neuroprotective agents was evaluated in mixed cortical neuronal cultures, following the method reported below.
Mixed cortical neuronal cultures from foetal rats at 16 days of gestation were prepared as described by Choi (j. Neur. Sci. 7: 357-368, 1987). Briefly dissociated cells were plated on poly-L-lysine coated multiwell plates at density of 1*10^5 cells/cm^2 in MEM with Earle's salts supplemented with 21 mM D-glucose, 2 mM L-glutamine, 50 μg/ml Streptomicin, 50 IU Penicillin, 10% Foetal Calf Serum and 10% Horse Serum. Cultures were kept at 37° C., 5% CO2 and survived about 5 weeks. After 7 days in vitro, astrocites proliferation was inhibited by adding 10 μM Cytosine Arabinoside for 48 hours; the medium was subsequently substituted twice a week with a fresh medium without foetal call serum (Hatley, J. Pharm. and Exp. Ther. 250 (II);752-758, 1989).
Only nature cortical cultures, from 14 DIV on, were used for the study. Experiments were performed at 25° C. as follows: cells were washed once with a Locke's buffer, (128 mM NaCl, […], 1.2 mM Na2HPO4, 2.7 mM CaCl2, 20 mM Hepes and 10 mM D-glucose) pH=7.4, then preincubated with the test compounds for 3 min. followed by a 20 min. exposure to N-methyl-D-aspartate (NMDA) (500 μM).
The incubation was stopped by removing Locke's buffer and substituting the conditioned medium. […]

Our source for the EC50 values is patent US6407122B1, “Amino-benzothiazole derivatives” (Pharmacia & Upjohn S.p.A., priority 1997, dated 2002).

As a reminder, the EC50 is the midpoint of the concentration-response curve.

As to `OC(CN1CCC(Cc2ccc(F)cc2)CC1)c1ccc(Cl)cc1` (centres unmarked) [Eliprodil], the EC50 worked out at 2260 nM.
As to `Nc1nc2ccc(CCN3CCC(Cc4ccccc4)CC3)cc2s1` [Example 15, 1-(2-Amino-benzothiazol-6-yl)-2-(4-benzyl-piperidin-1-yl)-ethane], the EC50 worked out at 640 nM.
